Results taken from ChEMBL document CHEMBL1201862, “PubChem BioAssay data set” (2004).
Active and inactive are the calls of the source.

Experiments:
[1] = biological target: Prothrombin (Bos taurus, UniProt P00735); experiment: thrombin protease inhibitors – biochemical, fluorescence polarization, uHTS hits, dose response (AID 602369); assay type: functional
[2] = biological target: Nonstructural protein 1 (Influenza A virus, UniProt Q194T2); assay type: functional, Influenza A virus (A/California/07/2009(H1N1))
Nonstructural protein 1, sequence (Q194T2 whole entry): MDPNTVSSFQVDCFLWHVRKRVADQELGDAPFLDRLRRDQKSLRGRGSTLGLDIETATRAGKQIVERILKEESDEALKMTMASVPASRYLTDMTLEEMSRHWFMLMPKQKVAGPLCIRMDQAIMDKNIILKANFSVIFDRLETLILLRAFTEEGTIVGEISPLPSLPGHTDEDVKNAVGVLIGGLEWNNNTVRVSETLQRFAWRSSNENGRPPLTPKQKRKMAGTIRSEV

[3] = biological target: 72 kDa type IV collagenase (Homo sapiens, UniProt P08253); experiment: Dose Response validation of uHTS RPN11 inhibitor hits using a MMP-2 Fluorescence assay.; assay type: functional
72 kDa type IV collagenase, sequence (P08253 whole entry): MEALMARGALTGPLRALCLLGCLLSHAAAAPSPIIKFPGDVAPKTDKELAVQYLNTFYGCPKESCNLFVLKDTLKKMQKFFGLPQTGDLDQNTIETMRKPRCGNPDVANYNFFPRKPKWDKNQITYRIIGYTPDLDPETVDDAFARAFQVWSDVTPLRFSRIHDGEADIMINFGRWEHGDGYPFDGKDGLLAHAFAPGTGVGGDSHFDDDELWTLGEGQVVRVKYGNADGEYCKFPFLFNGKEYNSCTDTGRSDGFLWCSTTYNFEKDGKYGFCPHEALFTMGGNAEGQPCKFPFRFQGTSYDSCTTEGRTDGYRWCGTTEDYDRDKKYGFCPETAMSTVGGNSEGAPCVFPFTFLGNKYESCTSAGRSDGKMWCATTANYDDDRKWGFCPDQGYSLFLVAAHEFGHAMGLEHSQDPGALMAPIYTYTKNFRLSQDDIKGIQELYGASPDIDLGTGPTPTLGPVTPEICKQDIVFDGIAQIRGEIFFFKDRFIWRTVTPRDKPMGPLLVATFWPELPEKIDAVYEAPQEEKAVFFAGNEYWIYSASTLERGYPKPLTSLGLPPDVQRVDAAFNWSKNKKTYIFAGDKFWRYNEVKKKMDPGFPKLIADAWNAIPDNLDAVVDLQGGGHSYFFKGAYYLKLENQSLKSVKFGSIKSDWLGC

[4] = biological target: T1, High affinity choline transporter 1 (Homo sapiens, UniProt Q9GZV3); experiment: human choline transporter blockers, potency – cell-based, 5-point CRC, membrane potential dye, dose response (AID 504840); assay type: functional
T1 sequence (Q9GZV3 whole entry): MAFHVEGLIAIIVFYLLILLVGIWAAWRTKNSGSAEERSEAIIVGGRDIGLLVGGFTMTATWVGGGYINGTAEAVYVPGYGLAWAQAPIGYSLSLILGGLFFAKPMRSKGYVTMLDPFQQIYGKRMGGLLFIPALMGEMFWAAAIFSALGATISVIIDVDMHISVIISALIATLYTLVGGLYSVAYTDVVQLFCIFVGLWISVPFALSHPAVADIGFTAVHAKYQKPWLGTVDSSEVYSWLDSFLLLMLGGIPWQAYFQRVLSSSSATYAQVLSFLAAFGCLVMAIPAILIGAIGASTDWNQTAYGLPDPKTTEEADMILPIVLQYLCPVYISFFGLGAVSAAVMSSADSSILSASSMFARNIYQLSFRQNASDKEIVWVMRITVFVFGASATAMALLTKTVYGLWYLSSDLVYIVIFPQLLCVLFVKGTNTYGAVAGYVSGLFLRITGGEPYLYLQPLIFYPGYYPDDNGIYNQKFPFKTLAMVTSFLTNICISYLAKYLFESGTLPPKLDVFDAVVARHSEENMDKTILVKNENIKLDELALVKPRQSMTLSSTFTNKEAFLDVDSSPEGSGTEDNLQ

[5] = biological target: 26S proteasome non-ATPase regulatory subunit 14 (Homo sapiens, UniProt O00487); experiment: inhibition of proteasome subunit RPN11 – biochemical, fluorescence polarization, uHTS hits, confirmation (AID 602368); assay type: functional
26S proteasome non-ATPase regulatory subunit 14, sequence (O00487 whole entry): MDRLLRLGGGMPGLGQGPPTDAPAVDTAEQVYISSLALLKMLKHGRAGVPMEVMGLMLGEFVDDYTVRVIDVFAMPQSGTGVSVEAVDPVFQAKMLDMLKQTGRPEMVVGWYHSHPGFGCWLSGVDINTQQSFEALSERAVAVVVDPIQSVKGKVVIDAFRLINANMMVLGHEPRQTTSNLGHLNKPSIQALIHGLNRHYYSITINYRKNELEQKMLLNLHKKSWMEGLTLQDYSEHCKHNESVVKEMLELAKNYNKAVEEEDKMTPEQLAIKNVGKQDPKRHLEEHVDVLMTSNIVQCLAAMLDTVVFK

[6] = activation of miR-122 Renilla sensor silencing – cell-based, Huh7 psiCHECK-miR122, Renilla luciferase, cherry-picked, dose response (AID 651956); assay type: functional;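 also: huh7 hepatoma cells stably carrying a psiCHECK-2 miR-122 sensor plasmid; renilla luciferase signal reporting endogenous miR-122 activity after 48 h compound exposure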
[7] = biological target: T2, DNA repair and recombination protein RAD54-like (Homo sapiens, UniProt Q92698); experiment: RAD54 Holliday junction migration blockers – biochemical, fluorescence, cherry-picked samples, dose series, confirmation (AID 651657); assay type: functional
T2 sequence (Q92698 whole entry): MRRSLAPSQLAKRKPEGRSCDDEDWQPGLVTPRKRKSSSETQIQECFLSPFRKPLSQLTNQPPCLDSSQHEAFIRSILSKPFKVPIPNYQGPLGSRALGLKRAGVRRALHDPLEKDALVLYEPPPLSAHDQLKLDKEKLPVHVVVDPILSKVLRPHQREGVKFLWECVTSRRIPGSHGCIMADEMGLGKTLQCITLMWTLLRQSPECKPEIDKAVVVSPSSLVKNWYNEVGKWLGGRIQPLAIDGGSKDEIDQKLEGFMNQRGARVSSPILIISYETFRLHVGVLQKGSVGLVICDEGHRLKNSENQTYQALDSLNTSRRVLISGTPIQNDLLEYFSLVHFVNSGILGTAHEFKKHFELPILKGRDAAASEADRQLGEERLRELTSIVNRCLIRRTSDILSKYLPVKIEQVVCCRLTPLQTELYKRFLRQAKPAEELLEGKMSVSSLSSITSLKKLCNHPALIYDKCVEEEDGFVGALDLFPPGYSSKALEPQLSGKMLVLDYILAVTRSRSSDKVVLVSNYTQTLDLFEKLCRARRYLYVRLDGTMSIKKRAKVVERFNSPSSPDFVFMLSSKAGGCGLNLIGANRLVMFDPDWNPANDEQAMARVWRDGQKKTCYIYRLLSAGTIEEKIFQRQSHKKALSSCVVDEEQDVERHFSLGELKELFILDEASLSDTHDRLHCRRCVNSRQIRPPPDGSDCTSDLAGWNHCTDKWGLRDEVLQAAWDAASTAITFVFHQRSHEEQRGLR

[8] = biological target: T3, Probable nicotinate-nucleotide adenylyltransferase (Staphylococcus aureus (strain N315), UniProt P65502); assay type: functional, Staphylococcus aureus subsp. aureus N315; settings: read-out: IC50_Mean;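 as to IC50 Mean: confirmatory dose-response retesting of NadD inhibitor hits first found in an ultra-high-throughput screen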
T3 sequence (P65502 whole entry): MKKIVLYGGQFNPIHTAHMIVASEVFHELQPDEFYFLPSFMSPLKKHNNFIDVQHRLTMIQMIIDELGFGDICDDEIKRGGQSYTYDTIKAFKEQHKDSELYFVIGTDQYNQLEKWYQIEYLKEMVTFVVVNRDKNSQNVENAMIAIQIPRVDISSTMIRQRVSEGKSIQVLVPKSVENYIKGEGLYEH

[9] = biological target: T3, Probable nicotinate-nucleotide adenylyltransferase; assay type: functional, Staphylococcus aureus subsp. aureus N315
[10] = biological target: T4, Melanocortin receptor 4 (Homo sapiens, UniProt P32245); experiment: inhibitors of MC4R cAMP signaling – cell-based, TR-FRET, biased antagonists, dose response (AID 602298); assay type: functional;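 also: antagonist potency against agonist-stimulated cAMP production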
T4 sequence (P32245 whole entry): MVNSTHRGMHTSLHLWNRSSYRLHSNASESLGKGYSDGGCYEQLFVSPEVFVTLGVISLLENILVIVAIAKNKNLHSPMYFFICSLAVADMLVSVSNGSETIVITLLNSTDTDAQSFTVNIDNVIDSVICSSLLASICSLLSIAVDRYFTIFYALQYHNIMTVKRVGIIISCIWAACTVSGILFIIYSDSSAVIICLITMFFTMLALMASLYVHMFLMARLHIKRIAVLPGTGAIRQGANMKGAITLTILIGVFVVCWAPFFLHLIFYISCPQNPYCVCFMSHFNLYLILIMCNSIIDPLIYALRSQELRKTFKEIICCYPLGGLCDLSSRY

[11] = biological target: Beta-2 adrenergic receptor (Homo sapiens, UniProt P07550); experiment: ADRB2 activation measured by internalization – cell-based, FAP fluorogen, flow cytometry, cherry pick 1, dose response (AID 588763); assay type: functional
Beta-2 adrenergic receptor, sequence (P07550 whole entry): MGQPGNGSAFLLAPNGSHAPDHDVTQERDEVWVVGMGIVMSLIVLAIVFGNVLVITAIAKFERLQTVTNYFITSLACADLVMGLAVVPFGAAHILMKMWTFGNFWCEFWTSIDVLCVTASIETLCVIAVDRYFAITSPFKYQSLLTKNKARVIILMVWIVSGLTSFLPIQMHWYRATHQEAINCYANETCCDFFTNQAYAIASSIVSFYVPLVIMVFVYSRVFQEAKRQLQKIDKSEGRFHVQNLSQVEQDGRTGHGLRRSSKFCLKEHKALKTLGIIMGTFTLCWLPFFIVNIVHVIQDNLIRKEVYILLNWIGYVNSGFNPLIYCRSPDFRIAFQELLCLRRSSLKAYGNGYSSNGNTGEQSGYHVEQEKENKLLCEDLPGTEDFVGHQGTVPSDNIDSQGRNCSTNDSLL

[12] = biological target: T5, Type-1 angiotensin II receptor (Homo sapiens, UniProt P30556); experiment: antagonism of angiotensin II type 1 receptor – cell-based, uHTS hits, selectivity assay for APJ receptor antagonist project, dose response (AID 463214); assay type: functional;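 also: antagonist potency against angiotensin II stimulated AT1 response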
T5 sequence (P30556 whole entry): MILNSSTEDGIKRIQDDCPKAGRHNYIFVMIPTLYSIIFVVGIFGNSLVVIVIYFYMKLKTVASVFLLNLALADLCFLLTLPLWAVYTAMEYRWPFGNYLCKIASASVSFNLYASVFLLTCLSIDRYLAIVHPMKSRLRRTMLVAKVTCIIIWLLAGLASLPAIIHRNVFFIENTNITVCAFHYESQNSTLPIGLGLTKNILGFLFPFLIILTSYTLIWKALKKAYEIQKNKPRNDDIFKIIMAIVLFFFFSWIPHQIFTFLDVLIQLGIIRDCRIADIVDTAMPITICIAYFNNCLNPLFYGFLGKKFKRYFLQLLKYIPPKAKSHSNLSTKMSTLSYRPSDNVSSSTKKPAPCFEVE

[13] = cAMP pathway inhibition in counterscreen cell line – TR-FRET cAMP detection, counter-screen for MC4R biased antagonist project, dose response (AID 602305); assay type: functional, cell-based;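 also: U2OS cells stimulated with forskolin near its EC80 as the cAMP inducer; potency is for inhibition of forskolin-stimulated cAMP signaling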
[14] = viability of HCT116 lacking mutant beta-catenin – cell-based, human colon tumor, dose response (AID 1045); assay type: functional;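 also: HCT116 colon tumor cells with beta catenin knocked out; cells exposed to compound for 60 hours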
[15] = biological target: Beta-galactosidase (Escherichia coli, UniProt Q8VNN2); experiment: PubChem AID 485352; assay type: functional
[16] = viability of PTEN-deleted HCT116 cells – cell-based, HCT116 PTEN knockout, dose response (AID 1047); assay type: functional;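 also: HCT116 colon tumor cells with PTEN knocked out; cells exposed to compound for 60 hours before readout; potency for loss of cell viability measured by luminescence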
[17] = Luminescence Cell-Based Dose Retest to Confirm Inhibitors of Cancer Stem Cells. [Related pubchem assays (depositor defined):AID2717, AID2721]; assay type: functional; settings: Homo sapiens
[18] = biological target: T6, Short transient receptor potential channel 4 (Mus musculus, UniProt Q9QUQ5); experiment: calcium entry via TRPC4 opening agents – cell-based, HEK293 TRPC4/mu-opioid, Fluo-4 calcium, dose response (AID 434937); assay type: functional
T6 sequence (Q9QUQ5 whole entry): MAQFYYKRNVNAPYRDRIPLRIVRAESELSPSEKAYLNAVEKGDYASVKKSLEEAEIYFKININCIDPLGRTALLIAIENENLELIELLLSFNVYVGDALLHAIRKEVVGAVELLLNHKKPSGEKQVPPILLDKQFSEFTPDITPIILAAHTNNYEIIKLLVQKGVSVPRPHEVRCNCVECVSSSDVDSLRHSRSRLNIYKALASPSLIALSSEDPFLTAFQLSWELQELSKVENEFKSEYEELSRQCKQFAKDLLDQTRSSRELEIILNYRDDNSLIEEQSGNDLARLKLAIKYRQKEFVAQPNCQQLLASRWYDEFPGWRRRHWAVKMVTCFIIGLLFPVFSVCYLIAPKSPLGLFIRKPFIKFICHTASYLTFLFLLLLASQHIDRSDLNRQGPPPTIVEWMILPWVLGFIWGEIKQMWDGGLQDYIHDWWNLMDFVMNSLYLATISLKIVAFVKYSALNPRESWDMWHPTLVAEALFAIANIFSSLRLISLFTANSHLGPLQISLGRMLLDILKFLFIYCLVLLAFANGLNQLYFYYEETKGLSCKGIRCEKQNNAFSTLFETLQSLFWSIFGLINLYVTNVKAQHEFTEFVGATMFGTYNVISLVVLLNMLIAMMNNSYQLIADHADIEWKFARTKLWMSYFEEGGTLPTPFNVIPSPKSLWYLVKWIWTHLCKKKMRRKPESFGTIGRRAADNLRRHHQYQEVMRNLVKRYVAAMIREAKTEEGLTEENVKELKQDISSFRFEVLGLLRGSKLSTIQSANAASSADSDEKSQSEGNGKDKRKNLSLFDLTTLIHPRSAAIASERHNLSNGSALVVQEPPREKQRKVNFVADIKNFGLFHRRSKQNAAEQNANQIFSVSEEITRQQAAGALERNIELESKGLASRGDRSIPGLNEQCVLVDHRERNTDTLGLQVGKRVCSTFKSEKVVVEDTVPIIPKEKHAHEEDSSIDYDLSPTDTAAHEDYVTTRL

[19] = biological target: T4, Melanocortin receptor 4; assay type: functional, cell-based
[20] = biological target: Paired box protein Pax-8 (Homo sapiens, UniProt Q06710); experiment: PAX8 transcriptional activity inhibition in RMG-I – RMG-I cells, luciferase, cherry-pick, dose response (AID 687027); assay type: functional, cell-based;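 also: luciferase reporter driven by Pax8 target thyroperoxidase promoter measured by SteadyGlo luminescence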
Paired box protein Pax-8, sequence (Q06710 whole entry): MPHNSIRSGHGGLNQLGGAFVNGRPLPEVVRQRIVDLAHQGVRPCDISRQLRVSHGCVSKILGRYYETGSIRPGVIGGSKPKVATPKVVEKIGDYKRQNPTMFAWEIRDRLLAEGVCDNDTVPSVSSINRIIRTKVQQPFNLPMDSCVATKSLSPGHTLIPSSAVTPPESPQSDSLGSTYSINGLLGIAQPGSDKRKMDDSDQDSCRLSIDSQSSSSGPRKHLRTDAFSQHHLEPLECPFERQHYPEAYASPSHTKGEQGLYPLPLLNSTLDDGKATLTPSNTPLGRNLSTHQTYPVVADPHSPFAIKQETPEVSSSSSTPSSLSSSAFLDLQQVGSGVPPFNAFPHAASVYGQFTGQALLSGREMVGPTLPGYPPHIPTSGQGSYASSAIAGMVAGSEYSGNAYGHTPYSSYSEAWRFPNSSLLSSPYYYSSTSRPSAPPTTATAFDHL

[21] = biological target: Ras and Rab interactor 1/Tyrosine-protein kinase ABL1 (Homo sapiens, UniProt P00519+Q13671); assay type: functional;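 also: biochemical TR-FRET dose-response test measuring inhibition of binding between Rin1 and Abl proteins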
Ras and Rab interactor 1/Tyrosine-protein kinase ABL1, sequence (P00519 whole entry): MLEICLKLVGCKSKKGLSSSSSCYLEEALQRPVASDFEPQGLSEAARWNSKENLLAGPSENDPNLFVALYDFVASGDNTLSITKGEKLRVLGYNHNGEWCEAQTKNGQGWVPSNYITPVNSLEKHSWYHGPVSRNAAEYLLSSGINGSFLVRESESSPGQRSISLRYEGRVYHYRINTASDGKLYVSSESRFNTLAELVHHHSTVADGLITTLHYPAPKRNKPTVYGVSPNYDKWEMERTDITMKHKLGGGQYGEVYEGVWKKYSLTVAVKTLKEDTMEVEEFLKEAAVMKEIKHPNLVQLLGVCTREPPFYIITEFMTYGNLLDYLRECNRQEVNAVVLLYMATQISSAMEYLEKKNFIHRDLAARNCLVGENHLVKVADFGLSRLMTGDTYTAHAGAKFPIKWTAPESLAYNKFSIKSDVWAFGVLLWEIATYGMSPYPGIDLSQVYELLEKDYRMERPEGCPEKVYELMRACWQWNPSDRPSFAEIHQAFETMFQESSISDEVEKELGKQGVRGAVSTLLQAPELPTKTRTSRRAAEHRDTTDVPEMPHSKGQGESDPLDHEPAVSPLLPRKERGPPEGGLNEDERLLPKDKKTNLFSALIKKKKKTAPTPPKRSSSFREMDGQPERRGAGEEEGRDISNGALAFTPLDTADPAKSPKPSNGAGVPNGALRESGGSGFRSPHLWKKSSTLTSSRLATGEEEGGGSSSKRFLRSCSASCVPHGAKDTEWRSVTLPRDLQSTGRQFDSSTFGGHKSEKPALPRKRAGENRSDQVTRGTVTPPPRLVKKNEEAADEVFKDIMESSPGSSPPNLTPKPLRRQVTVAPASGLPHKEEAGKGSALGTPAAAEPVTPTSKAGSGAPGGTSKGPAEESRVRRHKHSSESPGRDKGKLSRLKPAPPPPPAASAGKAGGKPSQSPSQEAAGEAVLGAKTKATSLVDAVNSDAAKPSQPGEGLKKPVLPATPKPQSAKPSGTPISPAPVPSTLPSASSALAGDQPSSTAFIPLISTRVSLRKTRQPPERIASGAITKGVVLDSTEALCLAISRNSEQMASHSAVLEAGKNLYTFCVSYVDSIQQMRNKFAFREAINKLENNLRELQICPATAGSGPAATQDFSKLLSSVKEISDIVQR
Ras and Rab interactor 1/Tyrosine-protein kinase ABL1, sequence (Q13671 whole entry): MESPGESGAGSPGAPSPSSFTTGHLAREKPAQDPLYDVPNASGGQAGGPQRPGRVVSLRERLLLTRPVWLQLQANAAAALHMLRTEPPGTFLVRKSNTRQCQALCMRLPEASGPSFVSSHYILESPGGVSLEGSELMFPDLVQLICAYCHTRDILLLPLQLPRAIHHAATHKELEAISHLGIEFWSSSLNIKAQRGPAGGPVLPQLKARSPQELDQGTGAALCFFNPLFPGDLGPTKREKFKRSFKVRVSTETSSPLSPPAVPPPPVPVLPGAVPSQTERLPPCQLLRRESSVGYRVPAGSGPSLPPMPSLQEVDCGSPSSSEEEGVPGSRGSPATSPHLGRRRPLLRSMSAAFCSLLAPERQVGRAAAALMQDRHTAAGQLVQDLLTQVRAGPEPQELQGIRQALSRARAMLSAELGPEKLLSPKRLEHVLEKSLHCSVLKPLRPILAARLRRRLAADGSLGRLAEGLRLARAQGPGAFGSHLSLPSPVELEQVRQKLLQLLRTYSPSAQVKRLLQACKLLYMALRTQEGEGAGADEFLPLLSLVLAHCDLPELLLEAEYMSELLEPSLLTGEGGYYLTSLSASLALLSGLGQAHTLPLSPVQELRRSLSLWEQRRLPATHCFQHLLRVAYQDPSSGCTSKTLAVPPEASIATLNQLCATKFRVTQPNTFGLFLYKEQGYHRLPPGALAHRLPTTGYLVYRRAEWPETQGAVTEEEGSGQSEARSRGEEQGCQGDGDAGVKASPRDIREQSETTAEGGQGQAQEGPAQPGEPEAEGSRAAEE

In the case of `COc1cccc(-c2nn(-c3ccccc3)cc2/C=C(\C#N)C(=O)NCCCn2ccnc2)c1`, the IC50 [1] is reported as 44.4 µM (active), the IC50 [2] is reported as 74.2 µM (active) and the IC50 [3] is reported as > 100 µM (inactive). The IC50 [4] was 10.5 µM (active) and the IC50 [5] was 38.9 µM (active).

In the case of `COc1cccc(-c2nc(NCCN3CCOCC3)c3ccccc3n2)c1O`, the AC50 [6] is reported as 51.4 µM (active) and the AC50 [7] is reported as 8.35 µM (active).

With `CCOC(=O)c1c(C)[nH]c(C(=O)OCC(=O)N(CC(C)C)c2c(N)n(Cc3ccccc3)c(=O)[nH]c2=O)c1C` the IC50 [1] was 33.7 µM (active), the IC50 [3] was > 100 µM (inactive) and the IC50 [5] was 31.8 µM (active).

In the case of `Cc1cccc(N2CCN(C(=O)c3ccc4c(c3)NC(=O)C(CSCc3cccc(F)c3)N4)CC2C)c1` (configuration not stated), the IC50 [8] is reported as 13.8 µM (active) and the IC50 [9] is reported as 3.09 µM (active).

For `CC(C)Cc1nc2oc3c(Cl)ncnc3c2c2c1CCC2`, the IC50 [10] was > 64.6 µM (inactive), the EC50 [11] was 11.8 µM (inactive) and the IC50 [12] was > 40 µM (not active). The IC50 [13] was > 64.6 µM (inactive), the EC50 [14] was 8.07 µM (active) and the EC50 [15] was > 40 µM (inactive). The EC50 [16] was 18 µM (active) and the AC50 [17] was 4.61 µM (active).

With `Cc1nc(SCc2nc3cc(Cl)c(F)cc3[nH]2)c2oc3ccccc3c2n1` the IC50 [1] was 42.5 µM (active), the IC50 [3] was > 100 µM (inactive) and the IC50 [5] was 38.1 µM (active).

For `CC(C)C1CC(CCNCc2ccc3c(c2)OCO3)(c2ccccc2)CCO1` (configuration not stated), the IC50 [10] was > 64.6 µM (inactive), the EC50 [18] was 5.96 µM (active) and the IC50 [13] was > 64.6 µM (inactive).

With `CCN1CCC(O)(/C=C/c2ccc(C(C)C)cc2)C(C(=O)/C=C/c2ccc(C(C)C)cc2)C1` (configuration not stated) the EC50 [19] was > 89.2 µM (inactive).

For `COc1ccc(C(NC(=O)C2CCN(CCOc3ccc(Cl)cc3Cl)CC2)c2ccccc2C)cn1` (configuration not stated), the EC50 [19] was > 89.2 µM (inactive).

With `CCN1CCN(Cc2ccc(NC(=O)c3cc(NC(=O)C(=O)c4c[nH]c5ccccc45)cc(OC)c3)cc2C(F)(F)F)CC1` the EC50 [19] was > 89.2 µM (inactive) and the AC50 [20] was 8.98 µM (active).

For `O=C(Cc1ccc(NC(=O)C2CCN(C(=O)C3CCCCC3)CC2)cc1)Nc1ccc(C(=O)N2CCOCC2)cc1`, the IC50 [21] was 5.51 µM (active).

For `COc1ccc(/C=N/NC(=O)Cn2c(Cc3ccc(OC)c(OC)c3)nc3ccccc32)cc1`, the IC50 [21] was > 73.4 µM (inactive).

In the case of `COc1cccc(-c2ccc3c(c2)O[C@H](CN(C)C(=O)C2CCOCC2)[C@H](C)CN([C@H](C)CO)S3(=O)=O)c1`, the AC50 [6] is reported as 15.8 µM (active).

With `C#CCN(C[C@H]1[C@H](OC(=O)NCc2ccccc2)[C@H](OC(=O)NCc2ccccc2)C[C@H]2C(=O)N(c3ccccc3)C(=O)[C@@H]12)S(=O)(=O)c1ccc(C)cc1` the IC50 [8] was 42.3 µM (active) and the IC50 [9] was 16.5 µM (active).

For `O=C1NC[C@@H](CCCCN2C[C@H](Cc3ccc(O)cc3)N(CCC3CCCCC3)C(=O)C2=O)N(CC2CCCCC2)C1=O`, the IC50 [8] was 37.2 µM (active) and the IC50 [9] was 8.3 µM (active).
